Patent US20080050319A1, “Benzylidene-Alpha-Dicarbonyl Compounds as Novel Uv Absorbers” (SYMRISE GMBH & CO. KG, priority 2004, published 2008)
One block for each molecule: values may come before it.

Assays:
Format in all cases: physicochemical
[1] = Solubility in cosmetic oils; details: per cent by weight
Description: Examples of Solubility (In Per Cent By Weight)
(data in per cent by weight)

[2] = UV absorption properties (extinction); parameters: unit not given here
Description: EXAMPLES FOR THE PREPARATION AND THE ABSORPTION PROPERTIES

[3] = Photostability test with Suntester, HPLC analysis of UV filter mixtures
Protocol: Photostability tests were carried out with a Suntester from Heräus. The irradiation intensity in these was 80 W/m^2, based on the UV range of 290-400 nm. The irradiation time was 4 h in total, the photodegradation of the UV filters being measured by HPLC analyses after an irradiation time of 2 and 4 h. The irradiations of the UV filter mixtures were carried out in an isopropyl myristate solution. The percentage values relate to the value measured without irradiation (decrease in the concentration).

[4] = 2 h, Experiment 1: 3% OMC + 1% DMDBM + 2% A1 in isopropyl myristate
[5] = 4 h, Experiment 1: 3% OMC + 1% DMDBM + 2% A1 in isopropyl myristate
[6] = 2 h, Experiment 2: 3% OMC + 1% DMDBM + 2% A2 in isopropyl myristate
[7] = 2 h, Experiment 3: 3% OMC + 1% DMDBM + 2% A3 in isopropyl myristate
[8] = 2 h, Experiment 4: 3% OMC + 1% DMDBM + 2% B1 in isopropyl myristate
[9] = 2 h, Experiment 5: 3% OMC + 1% DMDBM + 2% B2 in isopropyl myristate
[10] = 2 h, Experiment 6: 3% OMC + 1% DMDBM + 2% B3 in isopropyl myristate
[11] = 2 h irradiation, 80 W/m2, reference mixture 3% OMC + 1% DMDBM in isopropyl myristate
[12] = 4 h, Experiment 2: 3% OMC + 1% DMDBM + 2% A2 in isopropyl myristate
[13] = 4 h, Experiment 3: 3% OMC + 1% DMDBM + 2% A3 in isopropyl myristate
[14] = 4 h, Experiment 4: 3% OMC + 1% DMDBM + 2% B1 in isopropyl myristate
[15] = 4 h, Experiment 5: 3% OMC + 1% DMDBM + 2% B2 in isopropyl myristate
[16] = 4 h, Experiment 6: 3% OMC + 1% DMDBM + 2% B3 in isopropyl myristate
[17] = 4 h irradiation, 80 W/m2, reference mixture 3% OMC + 1% DMDBM in isopropyl myristate

SMILES: CCCOC(=O)/C(=C/c1ccc(OC)cc1)C(=O)c1ccccc1 [Example 2]
Solubility in Isopropyl myristate [1]: >10% | Solubility in Miglyol -812 [1]: >10% | Solubility in Witconol-TN [1]: >10% | Extinction ([2]; at 316 nm): 660

SMILES: COc1ccc(/C=C(/C(=O)OCCC(C)C)C(=O)c2ccccc2)cc1 [Example 5]
Solubility in Isopropyl myristate [1]: >20% | Solubility in Miglyol -812 [1]: >20% | Solubility in Witconol-TN [1]: >20% | Extinction ([2]; at 316 nm): 630

SMILES: CCCCOC(=O)/C(=C/c1ccc(OC)cc1)C(=O)c1ccccc1 [Example 4]
Solubility in Isopropyl myristate [1]: >20% | Solubility in Miglyol -812 [1]: >20% | Solubility in Witconol-TN [1]: >20% | photodegradation (decrease in the concentration) [3, 4]: 0% | photodegradation (decrease in the concentration) [3, 5]: 0% | photostability (in words) ([3]; in mixture with OMC and DMDBM, compared with the comparison measurement): outstanding photostability | Extinction ([2]; at 316 nm): 660

SMILES: CCCCC(CC)COC(=O)C=Cc1ccc(OC)cc1 (stereo not drawn) [OMC, octyl methoxycinnamate]
photodegradation (decrease in the concentration) [3, 4]: 12% | photodegradation (decrease in the concentration) [3, 6]: 12% | photodegradation (decrease in the concentration) [3, 7]: 11% | photodegradation (decrease in the concentration) [3, 8]: 11% | photodegradation (decrease in the concentration) [3, 9]: 15% | photodegradation (decrease in the concentration) [3, 10]: 13% | photodegradation (decrease in the concentration) [3, 11]: 58% | photodegradation (decrease in the concentration) [3, 5]: 17% | photodegradation (decrease in the concentration) [3, 12]: 17% | photodegradation (decrease in the concentration) [3, 13]: 17% | photodegradation (decrease in the concentration) [3, 14]: 18% | photodegradation (decrease in the concentration) [3, 15]: 30% | photodegradation (decrease in the concentration) [3, 16]: 25% | photodegradation (decrease in the concentration) [3, 17]: 76%

SMILES: CCOC(=O)/C(=C/c1ccc(C)cc1)C(=O)c1ccccc1 [Example 7]
Extinction ([2]; at 292 nm): 690

SMILES: COc1ccc(/C=C(/C(=O)OC(C)C)C(=O)c2ccccc2)cc1 [Example 1]
Solubility in Isopropyl myristate [1]: >10% | Solubility in Miglyol -812 [1]: >10% | Solubility in Witconol-TN [1]: >10% | Extinction ([2]; at 316 nm): 640

SMILES: COc1ccc(/C=C(/C(C)=O)C(=O)c2ccccc2)cc1 [Example 8]
Extinction ([2]; at 323 nm, pure Z isomer): 816

SMILES: CCOC(=O)/C(=C/c1ccc(OC)cc1)C(=O)C1CCCCC1 [Example 6]
Extinction ([2]; at 316 nm): 700

SMILES: CCOC(=O)/C(=C/c1ccc(OC)cc1)C(=O)c1ccc(C)cc1 [Example 9]
Extinction ([2]; at 316 nm): 660

SMILES: COc1ccc(C(=O)CC(=O)c2ccc(C(C)(C)C)cc2)cc1 [DMDBM, 4-dimethylethyl-4′-methoxydibenzoylmethane]
photodegradation (decrease in the concentration) [3, 4]: 24% | photodegradation (decrease in the concentration) [3, 6]: 20% | photodegradation (decrease in the concentration) [3, 7]: 20% | photodegradation (decrease in the concentration) [3, 8]: 27% | photodegradation (decrease in the concentration) [3, 9]: 27% | photodegradation (decrease in the concentration) [3, 10]: 27% | photodegradation (decrease in the concentration) [3, 11]: 67% | photodegradation (decrease in the concentration) [3, 5]: 38% | photodegradation (decrease in the concentration) [3, 12]: 28% | photodegradation (decrease in the concentration) [3, 13]: 28% | photodegradation (decrease in the concentration) [3, 14]: 48% | photodegradation (decrease in the concentration) [3, 15]: 60% | photodegradation (decrease in the concentration) [3, 16]: 52% | photodegradation (decrease in the concentration) [3, 17]: 87%

SMILES: COc1ccc(/C=C(/C(=O)OCC(C)C)C(=O)c2ccccc2)cc1 [Example 3]
Solubility in Isopropyl myristate [1]: >20% | Solubility in Miglyol -812 [1]: >20% | Solubility in Witconol-TN [1]: >20% | Extinction ([2]; at 316 nm): 640

Results, then the molecule that gave them:

photodegradation (decrease in the concentration) [3, 9]: 2% | photodegradation (decrease in the concentration) [3, 15]: 7%
SMILES: CCOC(=O)C(=Cc1ccc(OC)cc1)C(=O)OCC [Example B2]

Solubility in Isopropyl myristate [1]: >20% | Solubility in Miglyol -812 [1]: >20% | Solubility in Witconol-TN [1]: >20%
SMILES: CCOC(=O)/C(=C/c1ccc(OC)cc1)C(=O)c1ccccc1 [Example A3]

Solubility in Isopropyl myristate [1]: <10% | Solubility in Miglyol -812 [1]: <10% | Solubility in Witconol-TN [1]: <10% | photodegradation (decrease in the concentration) [3, 6]: 3% | photodegradation (decrease in the concentration) [3, 12]: 3%
SMILES: COc1ccc(/C=C(/C(C)=O)C(=O)c2ccccc2)cc1 [Example A2]

photodegradation (decrease in the concentration) [3, 7]: 0% | photodegradation (decrease in the concentration) [3, 13]: 0%
SMILES: CCOC(=O)/C(=C/c1ccc(OC)cc1)C(=O)c1ccccc1 [Example A2]

photodegradation (decrease in the concentration) [3, 10]: 0% | photodegradation (decrease in the concentration) [3, 16]: 8%
SMILES: COc1ccc(C=C(C(C)=O)C(C)=O)cc1 [Example B3]
